# Reference: ChEMBL document CHEMBL1201862, “PubChem BioAssay data set” (2004)
#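 96-well plates; 48 h exposure; 5 concentrations. Endpoints by linear interpolation between flanking doses. Not reached: highest tested concentration assigned. Abbreviation: GI50, concentration required for 50% inhibition of growth.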 Calls of active or inactive are those of the source. Cut-off read from the data, not from the text of the source: active = GI50 up to about 1.1 µM and inactive = higher.
# What was measured:
# Assay in all cases: NCI anticancer screen, dose series, 48 h
# 786-0 = test system: 786-0
# A498 = test system: A498
# A549 = test system: A549
# ACHN = test system: ACHN
# CAKI-1 = test system: CAKI-1
# CCRF-CEM = test system: CCRF-CEM
# COLO 205 = test system: COLO 205
# DLD-1 = test system: DLD-1
# DMS-114 = test system: DMS-114
# DMS-273 = test system: DMS-273
# EKVX = test system: EKVX
# HCC 2998 = test system: HCC 2998
# HCT-116 = test system: HCT-116
# HCT-15 = test system: HCT-15
# HL-60 = test system: HL-60
# HOP-18 = test system: HOP-18
# HOP-62 = test system: HOP-62
# HOP-92 = test system: HOP-92
# HT-29 = test system: HT-29
# IGROV-1 = test system: IGROV-1
# K562 = test system: K562
# KM-20L2 = test system: KM-20L2
# KM12 = test system: KM12
# LOX IMVI = test system: LOX IMVI
# LXFL 529 = test system: LXFL 529
# M14 = test system: M14
# M19-MEL = test system: M19-MEL
# MOLT-4 = test system: MOLT-4
# Malme-3M = test system: Malme-3M
# NCI-H226 = test system: NCI-H226
# NCI-H23 = test system: NCI-H23
# NCI-H460 = test system: NCI-H460
# NCI-H522 = test system: NCI-H522
# OVCAR-3 = test system: OVCAR-3
# OVCAR-4 = test system: OVCAR-4
# OVCAR-5 = test system: OVCAR-5
# OVCAR-8 = test system: OVCAR-8
# RXF 393 = test system: RXF 393
# SF-268 = test system: SF-268
# SF-295 = test system: SF-295
# SF-539 = test system: SF-539
# SK-MEL-28 = test system: SK-MEL-28
# SK-MEL-2 = test system: SK-MEL-2
# SK-MEL-5 = test system: SK-MEL-5
# SK-OV-3 = test system: SK-OV-3
# SN12C = test system: SN12C
# SNB-19 = test system: SNB-19
# SNB-75 = test system: SNB-75
# SW-620 = test system: SW-620
# TK-10 = test system: TK-10
# U-251 = test system: U-251
# UACC-257 = test system: UACC-257
# UACC-62 = test system: UACC-62
# UO-31 = test system: UO-31
compound,measurement,setting,value
Oc1nc(CC(O)c2ccc(Cl)c(Cl)c2)cc(-c2ccccc2)n1 (centres undefined),GI50,786-0,> 100 µM (inactive)
same,GI50,A498,32.7 µM (inactive)
same,GI50,A549,27.1 µM (inactive)
same,GI50,ACHN,> 100 µM (inactive)
same,GI50,CAKI-1,55.6 µM (inactive)
same,GI50,CCRF-CEM,30.1 µM (inactive)
same,GI50,COLO 205,17.3 µM (inactive)
same,GI50,DLD-1,> 100 µM (inactive)
same,GI50,DMS-114,38.9 µM (inactive)
same,GI50,DMS-273,> 100 µM (inactive)
same,GI50,EKVX,44.9 µM (inactive)
same,GI50,HCC 2998,33.5 µM (inactive)
same,GI50,HCT-116,49.8 µM (inactive)
same,GI50,HCT-15,89.1 µM
same,GI50,HL-60,25.1 µM (inactive)
same,GI50,HOP-18,> 100 µM (inactive)
same,GI50,HOP-62,> 100 µM (inactive)
same,GI50,HOP-92,82.8 µM (inactive)
same,GI50,HT-29,40.5 µM (inactive)
same,GI50,IGROV-1,> 100 µM (inactive)
same,GI50,K562,51.3 µM (inactive)
same,GI50,KM-20L2,60 µM (inactive)
same,GI50,KM12,69.3 µM (inactive)
same,GI50,LOX IMVI,> 100 µM (inactive)
same,GI50,LXFL 529,> 100 µM (inactive)
same,GI50,M14,91 µM (inactive)
same,GI50,M19-MEL,44.3 µM (inactive)
same,GI50,MOLT-4,75.3 µM (inactive)
same,GI50,Malme-3M,46.8 µM (inactive)
same,GI50,NCI-H226,55.8 µM (inactive)
same,GI50,NCI-H23,71.9 µM (inactive)
same,GI50,NCI-H460,94.8 µM (inactive)
same,GI50,NCI-H522,22.6 µM (inactive)
same,GI50,OVCAR-3,48.8 µM (inactive)
same,GI50,OVCAR-4,68.4 µM (inactive)
same,GI50,OVCAR-5,11.2 µM (inactive)
same,GI50,OVCAR-8,> 100 µM (inactive)
same,GI50,RXF 393,41.1 µM (inactive)
same,GI50,SF-268,80.7 µM (inactive)
same,GI50,SF-295,53.7 µM (inactive)
same,GI50,SF-539,> 100 µM (inactive)
same,GI50,SK-MEL-28,> 100 µM (inactive)
same,GI50,SK-MEL-2,26.1 µM (inactive)
same,GI50,SK-MEL-5,37.8 µM (inactive)
same,GI50,SK-OV-3,43.6 µM (inactive)
same,GI50,SN12C,> 100 µM (inactive)
same,GI50,SNB-19,67.9 µM (inactive)
same,GI50,SNB-75,33 µM (inactive)
same,GI50,SW-620,> 100 µM (inactive)
same,GI50,TK-10,24.8 µM (inactive)
same,GI50,U-251,> 100 µM (inactive)
same,GI50,UACC-257,36.1 µM (inactive)
same,GI50,UACC-62,45.5 µM (inactive)
same,GI50,UO-31,26.2 µM (inactive)
